Experimental data: PubChem BioAssay (NCI)
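Grown in 96-well plates, cells were treated for 48 hours with each compound at five concentrations. Insufficient inhibition: endpoint recorded as highest concentration tested. GI50 = concentration required for 50% inhibition of growth. TGI denotes the concentration required for complete inhibition of growth.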

Key:
Experiment in all cases: inhibition of tumour cell growth, NCI panel, 48 h
[1] = test system: NCI-H23 lung
[2] = test system: A498 renal
[3] = test system: COLO 205 colon
[4] = test system: HCC-2998 colon
[5] = test system: MDA-MB-231 breast
[6] = test system: SF-539 CNS
[7] = test system: SNB-75 CNS
[8] = test system: SW-620 colon
[9] = test system: HS 578T breast
[10] = test system: HCT-116 colon
[11] = test system: SR leukemia
[12] = test system: BT-549 breast
[13] = test system: CAKI-1 renal
[14] = test system: CCRF-CEM leukemia
[15] = test system: HCT-15 colon
[16] = test system: MALME-3M melanoma
[17] = test system: NCI-H226 lung
[18] = test system: SF-295 CNS
[19] = test system: DU-145 prostate
[20] = test system: PC-3 prostate
[21] = test system: HL-60(TB) leukemia
[22] = test system: MDA-MB-435
[23] = test system: U251 CNS
[24] = test system: UACC-257 melanoma
[25] = test system: EKVX NSCLC
[26] = test system: HOP-92 NSCLC
[27] = test system: OVCAR-8 ovarian
[28] = test system: A549 NSCLC
[29] = test system: OVCAR-5 ovarian
[30] = test system: T-47D breast
[31] = test system: TK-10 renal
[32] = test system: NCI-H460 lung
[33] = test system: UACC-62 melanoma
[34] = test system: RPMI-8226 leukemia
[35] = test system: OVCAR-3 ovarian
[36] = test system: M14 melanoma
[37] = test system: SK-MEL-5 melanoma
[38] = test system: MOLT-4 leukemia
[39] = test system: NCI-H522 lung
[40] = test system: IGROV1 ovarian
[41] = test system: NCI/ADR-RES ovarian
[42] = test system: SNB-19 CNS
[43] = test system: 786-0 renal
[44] = test system: SK-MEL-28 melanoma
[45] = test system: HT29 colon
[46] = test system: HOP-62 NSCLC
[47] = test system: K-562 leukemia
[48] = test system: SK-MEL-2 melanoma
[49] = test system: SK-OV-3 ovarian
[50] = test system: ACHN renal
[51] = test system: RXF 393 renal
[52] = test system: SN12C renal
[53] = test system: LOX IMVI melanoma
[54] = test system: UO-31 renal
[55] = test system: MCF7 breast

CC[C@@]12C=CCN3CC[C@]4(c5cc(NC(=O)COc6cc(OCC(=O)Nc7cc8c(cc7OC)N(C)[C@H]7[C@@](O)(C(=O)OC)[C@H](OC(C)=O)[C@]9(CC)C=CCN%10CC[C@]87[C@@H]%109)cc7oc(-c8ccccc8)cc(=O)c67)c(OC)cc5N(C)[C@@H]4[C@](O)(C(=O)OC)[C@H]1OC(C)=O)[C@H]32
GI50 [1]: 2.15 µM
TGI [1]: 6.58 µM
GI50 [2]: 7.6 µM
TGI [2]: 22.3 µM
GI50 [3]: 3.88 µM
TGI [3]: 27.3 µM
GI50 [4]: 1.89 µM
TGI [4]: 3.99 µM
GI50 [5]: 2.68 µM
TGI [5]: 9.08 µM
GI50 [6]: 4.62 µM
TGI [6]: > 100 µM
GI50 [7]: 3.41 µM
TGI [7]: > 100 µM
GI50 [8]: 3.89 µM
TGI [8]: 26.2 µM
GI50 [9]: 3.63 µM
TGI [9]: > 100 µM
GI50 [10]: 1.79 µM
TGI [10]: 6.14 µM
GI50 [11]: 2.06 µM
TGI [11]: > 100 µM
GI50 [12]: 3.7 µM
TGI [12]: > 100 µM
GI50 [13]: 4.52 µM
TGI [13]: > 100 µM
GI50 [14]: 3.51 µM
TGI [14]: > 100 µM
GI50 [15]: 1.7 µM
TGI [15]: 12.1 µM
GI50 [16]: > 100 µM
TGI [16]: > 100 µM
GI50 [17]: 4.34 µM
TGI [17]: 18 µM
GI50 [18]: 3.05 µM
TGI [18]: 11.9 µM
GI50 [19]: 4.46 µM
TGI [19]: > 100 µM
GI50 [20]: 2.91 µM
TGI [20]: > 100 µM
GI50 [21]: 20.4 µM
TGI [21]: > 100 µM
GI50 [22]: 17.7 µM
TGI [22]: > 100 µM
GI50 [23]: 3.29 µM
TGI [23]: > 100 µM
GI50 [24]: > 100 µM
TGI [24]: > 100 µM
GI50 [25]: 3.28 µM
TGI [25]: > 100 µM
GI50 [26]: 7.07 µM
TGI [26]: 80.4 µM
GI50 [27]: 2.87 µM
TGI [27]: > 100 µM
GI50 [28]: 7.14 µM
TGI [28]: > 100 µM
GI50 [29]: 3.76 µM
TGI [29]: 48.2 µM
GI50 [30]: 57.5 µM
TGI [30]: > 100 µM
GI50 [31]: 12.3 µM
TGI [31]: 61.7 µM
GI50 [32]: 2.55 µM
TGI [32]: 7.15 µM
GI50 [33]: 20.1 µM
TGI [33]: 64.6 µM
GI50 [34]: 3.2 µM
TGI [34]: > 100 µM
GI50 [35]: 2.58 µM
TGI [35]: 9.72 µM
GI50 [36]: 6.06 µM
TGI [36]: 28.7 µM
GI50 [37]: 36.9 µM
TGI [37]: > 100 µM
GI50 [38]: 2.79 µM
TGI [38]: > 100 µM
GI50 [39]: 2.15 µM
TGI [39]: 6.03 µM
GI50 [40]: 1.32 µM
TGI [40]: 3.63 µM
GI50 [41]: > 100 µM
TGI [41]: > 100 µM
GI50 [42]: 5.71 µM
TGI [42]: > 100 µM
GI50 [43]: 3.58 µM
TGI [43]: 14.9 µM
GI50 [44]: > 100 µM
TGI [44]: > 100 µM
GI50 [45]: 3.42 µM
TGI [45]: > 100 µM
GI50 [46]: 3.08 µM
TGI [46]: > 100 µM
GI50 [47]: 3.86 µM
TGI [47]: > 100 µM
GI50 [48]: 43.5 µM
TGI [48]: > 100 µM
GI50 [49]: 6.49 µM
TGI [49]: 19.7 µM
GI50 [50]: > 100 µM
TGI [50]: > 100 µM
GI50 [51]: 1.58 µM
TGI [51]: 3.28 µM
GI50 [52]: 7.27 µM
TGI [52]: > 100 µM
GI50 [53]: 2.63 µM
TGI [53]: 10.1 µM
GI50 [54]: > 100 µM
TGI [54]: > 100 µM
GI50 [55]: 3.25 µM
TGI [55]: 21.7 µM
